{"source": "patent US20120071401A1", "about": "“AMYLIN AGONIST COMPOUNDS FOR ESTROGEN-DEFICIENT MAMMALS” (Amylin Pharamaceuticals, Inc., priority 2009, published 2012)", "molecules": {"B1": {"name": "leptin (protein, UniProt P50596 22-167, looked up)", "Leptin": "VPIHKVQDDTKTLIKTIVTRINDISHTQSVSARQRVTGLDFIPGLHPILSLSKMDQTLAVYQQILTSLPSQNVLQIAHDLENLRDLLHLLAFSKSCSLPQTRGLQKPESLDGVLEASLYSTEVVALSRLQGSLQDILQQLDLSPEC", "notes": "long term signal of adiposity; acts synergistically with amylin in DIO rats"}}, "key": {"[1]": {"details": "human subjects; cited from earlier work"}, "in vivo": {"experiment": "in vivo", "details": "rat, 50 ug/kg/d; for level at 672 h: Plasma amylin", "method": "Amylin infusion to lean or obese, diabetic ZDF rats. Obese diabetic female ZDF rats (Charles River Laboratories) were maintained on 32% kcal/fat purified diet for approximately 6 weeks, and at 10 weeks of age were sorted into two weight-matched groups. One group was subjected to a bilateral ovariectomy (n=12) or SHAM surgery (n=12). Two weeks post-surgery rats were implanted with a single osmotic minipump (Alzet model 2ML4, Durect Corporation) delivering either vehicle or rat amylin (50 ug/kg/d) to half of each surgical group for 28 days. Lean (mean body weight 226±3 g) ZDF controls (Charles River) maintained on standard laboratory rodent chow (LM-485, 5% kcal/fat; Harlan Teklad) were sorted into weight-matched groups and implanted with a single osmotic minipump (Alzet model 2ML4, Durect Corporation) delivering either vehicle (n=9) or rat amylin (50 ug/kg/d; n=9) for 28 days. For both studies food intake and body weight were monitored weekly, and body composition was assessed at baseline and termination using NMR (Echo Medical Systems). After 28 days rats were euthanized by isoflurane overdose and cardiac blood collected.\nPlasma metabolite analyses. Terminal plasma insulin (Crystal Chem Inc., Downer's Grove, Ill.), and leptin, total adiponectin and total ghrelin (Millipore, Billerica, […].) levels were measured using commercially available ELISA. Plasma glucose, triglyceride, and total cholesterol levels were measured using an Olympus bioanalyzer (Olympus America Diagnostics, Center Valley, Pa.). Plasma amylin levels were measured using an internal IEMA."}, "[2]": {"details": "DIO rats, leptin dose alone; cited from earlier work"}}}
{"molecule": "CC[C@H](C)[C@H](NC(=O)[C@@H]1CCCN1C(=O)CNC(=O)[C@H](Cc1ccccc1)NC(=O)[C@H](CC(N)=O)NC(=O)[C@H](CC(N)=O)NC(=O)[C@H](CO)NC(=O)[C@H](CO)NC(=O)[C@H](Cc1c[nH]cn1)NC(=O)[C@@H](NC(=O)[C@H](CC(C)C)NC(=O)[C@H](Cc1ccccc1)NC(=O)[C@H](CC(N)=O)NC(=O)[C@H](C)NC(=O)[C@H](CC(C)C)NC(=O)[C@H](CCCNC(=N)N)NC(=O)[C@H](CCC(N)=O)NC(=O)[C@@H](NC(=O)[C@H](C)NC(=O)[C@@H]1CSSC[C@H](NC(=O)[C@@H](N)CCCCN)C(=O)N[C@@H](CC(N)=O)C(=O)N[C@@H]([C@@H](C)O)C(=O)N[C@@H](C)C(=O)N[C@@H]([C@@H](C)O)C(=O)N1)[C@@H](C)O)C(C)C)C(=O)N[C@@H](CC(C)C)C(=O)N1CCC[C@H]1C(=O)N1CCC[C@H]1C(=O)N[C@H](C(=O)N[C@@H](CC(N)=O)C(=O)N[C@H](C(=O)NCC(=O)N[C@@H](CO)C(=O)N[C@@H](CC(N)=O)C(=O)N[C@H](C(=O)N[C@@H](Cc1ccc(O)cc1)C(N)=O)[C@@H](C)O)C(C)C)[C@@H](C)O", "note": "[pramlintide]", "values": [{"measurement": "Food intake and body weight", "setting": "[1]", "value": "reduced food intake and body weight"}]}
{"molecule": "CC(C)C[C@H](NC(=O)[C@H](CC(N)=O)NC(=O)[C@H](CC(N)=O)NC(=O)[C@H](CO)NC(=O)[C@H](CO)NC(=O)[C@H](CCCNC(=N)N)NC(=O)[C@@H](NC(=O)[C@H](CC(C)C)NC(=O)[C@H](Cc1ccccc1)NC(=O)[C@H](CC(N)=O)NC(=O)[C@H](C)NC(=O)[C@H](CC(C)C)NC(=O)[C@H](CCCNC(=N)N)NC(=O)[C@H](CCC(N)=O)NC(=O)[C@@H](NC(=O)[C@H](C)NC(=O)[C@@H]1CSSC[C@H](NC(=O)[C@@H](N)CCCCN)C(=O)N[C@@H](CC(N)=O)C(=O)N[C@@H]([C@@H](C)O)C(=O)N[C@@H](C)C(=O)N[C@@H]([C@@H](C)O)C(=O)N1)[C@@H](C)O)C(C)C)C(=O)NCC(=O)N1CCC[C@H]1C(=O)N[C@H](C(=O)N[C@@H](CC(C)C)C(=O)N1CCC[C@H]1C(=O)N1CCC[C@H]1C(=O)N[C@H](C(=O)N[C@@H](CC(N)=O)C(=O)N[C@H](C(=O)NCC(=O)N[C@@H](CO)C(=O)N[C@@H](CC(N)=O)C(=O)N[C@H](C(=O)N[C@@H](Cc1ccc(O)cc1)C(N)=O)[C@@H](C)O)C(C)C)[C@@H](C)O)C(C)C", "note": "[rat amylin]", "values": [{"measurement": "level at 672 h", "setting": "in vivo; ZDF (lean controls)", "value": "3.43 ± 0.392", "unit": "ng/mL"}, {"measurement": "Plasma amylin", "setting": "in vivo; female, ZDF (obese diabetic), 672 h", "value": "3279 ± 430", "unit": "pg/mL"}, {"measurement": "level at 672 h", "setting": "in vivo; female, ZDF (obese diabetic)", "value": "3.45 ± 0.401", "unit": "ng/mL"}]}
{"molecule": "B1", "values": [{"measurement": "Reducing body weight", "setting": "[2]", "value": "ineffective"}]}
